Test results reported in the Deep4Chem optical property database.
Values belong to the molecule of their own block, whether it stands above or below them.

Experiment: solvent given as SMILES

SMILES: CC1(C)c2cc(C#N)ccc2-c2ccc(N3c4ccccc4Oc4ccccc43)cc21
- emission maximum (in C1CCCCC1): 433 nm
- emission maximum (in C1CCOC1): 550 nm
- emission maximum (in CC#N): 620 nm
- emission maximum (in Cc1ccccc1): 487 nm
- emission maximum (in ClC(Cl)Cl): 530 nm

SMILES: CN1CCCc2cc3c(C(F)(F)F)cc(=O)oc3cc21
- emission maximum (in C1CCCCC1): 439 nm
- emission maximum (in CC#N): 510 nm
- emission maximum (in CCO): 515 nm

SMILES: COc1ccc(C2=[N+]3C(=Nc4c5c6ccccc6c6ccc(C(C)(C)C)cc6c5c(-c5ccc(OC)cc5)n4[B-]3(F)F)c3c2c2cc(C(C)(C)C)ccc2c2ccccc32)cc1
- emission maximum (in Cc1ccccc1): 741 nm

SMILES: C#CCn1c2ccccc2c2cc(/C=C/C3=[N+]4C(=C(c5ccc(I)cc5)c5c(C)c(Cl)c(/C=C/c6ccc7c(c6)c6ccccc6n7CC#C)n5[B-]4(F)F)C(C)=C3Cl)ccc21
- emission maximum (in CC#N): 731 nm
- emission maximum (in CS(C)=O): 749 nm
- emission maximum (in ClC(Cl)Cl): 730 nm

SMILES: CN(C)c1ccc(C2=Nc3sc4cc(Cl)ccc4[n+]3[B-](F)(F)O2)cc1
- emission maximum (in C1CCOC1): 477 nm
- emission maximum (in CC#N): 491 nm
- emission maximum (in CC(C)=O): 488 nm
- emission maximum (in Cc1ccccc1): 456 nm
- emission maximum (in ClCCl): 473 nm

SMILES: Cc1cc(C)c(B(c2c(C)cc(C)cc2C)N2c3ccccc3C(C)(C)c3ccccc32)c(C)c1
- emission maximum (in C1CCCCC1): 533 nm
- emission maximum (in Cc1ccccc1): 558 nm
- emission maximum (in ClCCl): 580 nm

SMILES: CN(C)c1ccc(-c2cc(-c3ccc(C#N)cc3)nc(-c3ccccc3)n2)cc1
- emission maximum (in ClC(Cl)Cl): 495 nm

SMILES: CCn1c2ccccc2c2cc3c(cc21)c1ccccc1n3CC
- emission maximum (in ClC(Cl)Cl): 425 nm

SMILES: COc1ccc2c(C=C(C#N)C#N)cc3ccc4cc(C=C(C#N)C#N)c5ccc(OC)cc5c4c3c2c1
- emission maximum (in ClC(Cl)Cl): 545 nm

SMILES: Clc1ccc(/C=C/c2ccc(-c3nc4c5cccnc5c5ncccc5c4[nH]3)cc2)cc1
- emission maximum (in C1CCOC1): 463 nm
- emission maximum (in CC#N): 471 nm
- emission maximum (in CO): 473 nm
- emission maximum (in ClCCl): 467 nm

SMILES: Fc1ccc(C2=NC(c3ccccc3)C(N(c3ccccc3)c3ccccc3)S2)cc1 (stereo unspecified)
- emission maximum (in ClC(Cl)Cl): 461 nm

SMILES: CC(=O)c1ccc(-c2cc3c(ccc4sccc43)s2)cc1
- emission maximum (in ClCCl): 430 nm

SMILES: C1=[N+](c2ccccc2)[B-]2(Oc3c1ccc1c4c(ccc31)C=[N+](c1ccccc1)[B-]1(O4)c3ccccc3Oc3ccccc31)c1ccccc1Oc1ccccc12
- emission maximum (in Cc1ccccc1): 605 nm
- emission maximum (in ClCCl): 599 nm

SMILES: COC(=O)C1=C(C(=O)OC)C2(c3ccccc3-c3c(C(=O)OC)cccc32)[C@@H](c2ccc(Cl)cc2)C=C2c3cc(OC)c(OC)cc3CCN21 (stereo partly specified)
- emission maximum (in ClCCl): 439 nm

SMILES: CC(C)c1cc(C(C)C)c(B2c3ccccc3Oc3cc(N4c5ccccc5C5(c6ccccc6Oc6ccccc65)c5ccccc54)ccc32)c(C(C)C)c1
- emission maximum (in Cc1ccccc1): 451 nm

SMILES: Cc1cc2c(cc1N1c3ccccc3C(C)(C)c3ccccc31)C(C)(C)c1cc(N3c4ccccc4C(C)(C)c4ccccc43)c(C)cc1S2(=O)=O
- emission maximum (in Cc1ccccc1): 442.11 nm
- emission maximum (in ClCCl): 495 nm

SMILES: O=P1(c2ccccc2)C(c2ccc(N(c3ccccc3)c3ccccc3)cc2)=Cc2ccccc21 (stereo unspecified)
- emission maximum (in C1CCOC1): 521 nm
- emission maximum (in CC#N): 577 nm
- emission maximum (in CN(C)C=O): 566 nm
- emission maximum (in Cc1ccccc1): 490 nm
- emission maximum (in ClC(Cl)Cl): 529 nm
- emission maximum (in ClCCl): 544 nm

SMILES: CN(c1ccccc1)c1ccc(/C=C2\C(=O)c3ccccc3S2(=O)=O)cc1
- emission maximum (in C1CCOC1): 532 nm
- emission maximum (in C1COCCO1): 542 nm
- emission maximum (in CC#N): 511 nm
- emission maximum (in CC(C)=O): 537 nm
- emission maximum (in CCOC(C)=O): 533 nm
- emission maximum (in CN(C)C=O): 524 nm
- emission maximum (in CO): 525 nm
- emission maximum (in CS(C)=O): 552 nm
- emission maximum (in Cc1ccccc1): 576 nm
- emission maximum (in ClC(Cl)Cl): 532 nm
- emission maximum (in ClCCl): 547 nm

SMILES: CCN(CC)c1ccc2ccc(=O)oc2c1
- emission maximum (in CC(C)=O): 430 nm
- emission maximum (in CCCCCC): 392 nm
- emission maximum (in CCCCCCC): 390 nm
- emission maximum (in CCCCO): 442 nm
- emission maximum (in CCCO): 442 nm
- emission maximum (in CCO): 443 nm
- emission maximum (in CCOCC): 405 nm
- emission maximum (in CN(C)C=O): 440 nm
- emission maximum (in CO): 445 nm
- emission maximum (in Cc1ccccc1): 418 nm
- emission maximum (in ClC(Cl)(Cl)Cl): 412 nm
- emission maximum (in ClC(Cl)Cl): 435 nm
- emission maximum (in ClCCl): 466 nm
- emission maximum (in OCCO): 445 nm
- emission maximum (in c1ccccc1): 395 nm

SMILES: CC1(C)C(/C=C/C=C/C=C/C=C2/N(CCCCCC(=O)O)c3ccc(S(=O)(=O)[O-])cc3C2(C)C)=[N+](CCCCCC(=O)O)c2ccc(S(=O)(=O)[O-])cc21
- emission maximum (in CO): 773 nm
- emission maximum (in O): 771 nm

The next lines start with the values.

- emission maximum (in ClCCl): 537 nm
SMILES: CCc1ccccc1-c1c2ccccc2c(C#Cc2ccccc2)c2cc3ccccc3cc12

- emission maximum (in ClC(Cl)Cl): 520.7 nm
SMILES: CC1=CC(C)=[N+]2C1=C(c1ccc(I)cc1)c1c(C)cc(C)n1[B-]21OCCO1

- emission maximum (in C1COCCO1): 461 nm
SMILES: CC(=O)Nc1ccc(C2=N/C(=C\c3ccc(C#N)cc3)C(=O)O2)cc1

- emission maximum (in C1CCCCC1): 425 nm
SMILES: COc1cccc(OC)c1-c1c2ccccc2c(-c2c(OC)cccc2OC)c2ccccc12

- emission maximum (in c1ccccc1): 432 nm
SMILES: CCOC(=O)CSc1nc(-c2ccc(OC)cc2)c(C)c(C#N)c1C#N

- emission maximum (in C1CCOC1): 496 nm
SMILES: O=C(c1ccc(C(=C(c2ccccc2)c2ccccc2)c2ccccc2)cc1)c1ccc(-n2c3ccccc3c3ccccc32)cc1

- emission maximum (in c1ccccc1): 424 nm
SMILES: Cc1nc2c(ccc3ccccc32)oc1=O

- emission maximum (in C1CCCCC1): 425 nm
- emission maximum (in CC#N): 425 nm
SMILES: C[Si](C)(c1c2ccccc2cc2ccccc12)[Si](C)(C)c1c2ccccc2cc2ccccc12

- emission maximum (in ClC(Cl)Cl): 370 nm
SMILES: N#Cc1ccc(C#Cc2ccc(C#Cc3ccccc3C#N)cc2C#N)cc1

- emission maximum (in CS(C)=O): 583 nm
- emission maximum (in ClC(Cl)Cl): 544 nm
SMILES: CCCCCCN(c1ccccc1)c1ccc(/C=C/c2cc(=O)oc3cc(C)ccc23)cc1
